SMILES strings stand for the structures.

The subject of this assay is Target C. Briefly: RT-qPCR canonical junction panel assay, Target C mRNA. Format: cell-based. Particulars: Table 4, read-out: Target C IC50 (decrease in CJ mRNA levels). An outline of the steps:
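IC50 is the concentration giving 50% CJ decrease, from a 4-parameter logistic fit of percent response; response derived from ΔΔCt against housekeeper and DMSO over a fixed ΔCt window, with canonical exon-junction qPCR in compound-treated K562 or A673 cells.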
With `Cc1nc2c(F)c(O)c(-c3ccc4nc(N5CCC(NC6(C)CC6)C5)ccc4n3)cc2o1` (stereo in doubt) [Compound 327, 4-fluoro-2-methyl-6-{6-[(3R)-3-[(1-methylcyclopropyl)amino]pyrrolidin-1-yl]-1,5-naphthyridin-2-yl}-1,3-benzoxazol-5-ol], the half-inhibitory concentration (IC50) is less than 100 nM. On to `Cc1nc2c(C)c(O)c(-c3ccc4nc(N5CC[C@H](NC(C)(C)C)C5)ccc4n3)cc2o1` [Compound 214], for which the half-inhibitory concentration (IC50) is less than 100 nM. For the molecule `Cc1nc2c(C)c(O)c(-c3ccc4nc(N5CC[C@H](NC6CC6)C5)ccc4n3)cc2o1` [Compound 216], the IC50 was less than 100 nM.

Regarding `Cc1nc2c(C)c(O)c(-c3ccc4nc(N5CC[C@@H](NC6CC6)C5)ccc4n3)cc2o1` [Compound 217], the IC50 is less than 100 nM. The same measure for `Cn1cc2cc(-c3ccc4nc(N5CCC(NC6(C)CC6)C5)ccc4n3)c(O)cc2n1` (centres unmarked) [Compound 219]: less than 100 nM. The same measure for `Cc1nc2cc(O)c(-c3ccc4nc(N5CC[C@@H](NC6CCC6)C5)ccc4n3)cc2o1` [Compound 229]: 100 to 1000 nM; for `Cc1nc2cc(O)c(-c3ccc4nc(N5CC[C@H](NC6CCC6)C5)ccc4n3)cc2o1` [Compound 230]: 100 to 1000 nM; for `Cc1nc2cc(O)c(-c3ccc4nc(N5CCC(NC(C)C)C5)ccc4n3)cc2o1` (centres unmarked) [Compound 231]: less than 100 nM. The same measure for `Cc1nc2c(C)c(O)c(-c3ccc4nc(N5CCC(NC6CCC6)C5)ccc4n3)cc2o1` (centres unmarked) [Compound 235]: 100 to 1000 nM; for `Cc1nc2c(C)c(O)c(-c3ccc4nc(N5CC[C@@H](NC6CCC6)C5)ccc4n3)cc2o1` [Compound 236]: 100 to 1000 nM; for `Cc1nc2c(C)c(O)c(-c3ccc4nc(N5CC[C@H](NC6CCC6)C5)ccc4n3)cc2o1` [Compound 237]: less than 100 nM. For `Cc1cc(-c2ccc3nc(N4CCC(NC(C)(C)C)C4)ccc3n2)nc2cn(C)nc12` (centres unmarked) [Compound 248], the IC50 was 1000 to 10000 nM.

Consider `Cc1c(O)c(-c2ccc3nc(N4CC[C@@H](NC(C)(C)C)C4)ccc3n2)cc2cn(C)nc12` [Compound 249], for which the half-inhibitory concentration (IC50) was less than 100 nM. The same measure for `Cc1c(O)c(-c2ccc3nc(N4CC[C@H](NC(C)(C)C)C4)ccc3n2)cc2cn(C)nc12` [Compound 250]: less than 100 nM; for `COc1c(-c2ccc3nc(N4CCC(NC(C)(C)C)C4)ccc3n2)cc2c[nH]nc2c1C` (centres unmarked) [Compound 251]: greater than 10000 nM. The same measure for `Cc1cn2nc(-c3ccc4nc(N5CCC(NC6CC6)C5)ccc4n3)c(O)c2c(C)n1` (centres unmarked) [Compound 252]: 100 to 1000 nM; for `Cc1c(O)c(-c2ccc3nc(N4CCC(NCC5CC5)C4)ccc3n2)cc2cn(C)nc12` (centres unmarked) [Compound 284, 5-(6-{3-[(cyclopropylmethyl)amino]pyrrolidin-1-yl}-1,5-naphthyridin-2-yl)-2,7-dimethylindazol-6-ol]: 100 to 1000 nM; for `Cc1c(O)c(-c2ccc3nc(N4CCC(NC5CCC5)C4)ccc3n2)cc2cn(C)nc12` (centres unmarked) [Compound 288, 5-{6-[3-(cyclobutylamino)pyrrolidin-1-yl]-1,5-naphthyridin-2-yl}-2,7-dimethylindazol-6-ol]: 100 to 1000 nM. The same measure for `Cc1nc2c(F)c(O)c(-c3ccc4nc(N5CCC(NC6CCC6)C5)ccc4n3)cc2o1` (centres unmarked) [Compound 293, 6-{6-[3-(cyclobutylamino)pyrrolidin-1-yl]-1,5-naphthyridin-2-yl}-4-fluoro-2-methyl-1,3-benzoxazol-5-ol]: less than 100 nM; for `Cn1cc2cc(-c3ccc4nc(N5CCC(NC67CC(C6)C7)C5)ccc4n3)c(O)cc2n1` (centres unmarked) [Compound 297, 5-[6-(3-{bicyclo[1.1.1]pentan-1-ylamino}pyrrolidin-1-yl)-1,5-naphthyridin-2-yl]-2-methylindazol-6-ol]: greater than 10000 nM. In the case of `Cn1cc2nc(-c3ccc4nc(N5CCC(NC(C)(C)C)C5)ccc4n3)c(O)cc2n1` (centres unmarked) [Compound 298, 5-{6-[3-(tert-butylamino)pyrrolidin-1-yl]-1,5-naphthyridin-2-yl}-2-methylpyrazolo[4,3-b]pyridin-6-ol], the 50% inhibitory concentration (IC50) was 100 to 1000 nM.

On to `Cn1cc2cc(-c3ccc4nc(N5CC[C@H](N[C@H]6C[C@@H](F)C6)C5)ccc4n3)c(O)cc2n1` [Compound 299, 2-methyl-5-{6-[(3S)-3-{[(1s,3s)-3-fluorocyclobutyl]amino}pyrrolidin-1-yl]-1,5-naphthyridin-2-yl}indazol-6-ol], for which the IC50 is 1000 to 10000 nM.

As to `Cc1c(O)c(-c2ccc3nc(N4CCC(NC5COC5)C4)ccc3n2)cc2cn(C)nc12` (centres unmarked) [Compound 302, 2,7-dimethyl-5-{6-[3-(oxetan-3-ylamino)pyrrolidin-1-yl]-1,5-naphthyridin-2-yl}Indazol-6-ol], the IC50 was 1000 to 10000 nM. For the molecule `Cc1nc2c(C)c(O)c(-c3ccc4nc(N5CCC(NC6(C)CC6)C5)ccc4n3)cc2o1` (centres unmarked) [Compound 309, 2,4-dimethyl-6-(6-{3-[(1-methylcyclopropyl)amino]pyrrolidin-1-yl}-1,5-naphthyridin-2-yl)-1,3-benzoxazol-5-ol], the half-maximal inhibitory concentration (IC50) was less than 100 nM. `Cc1nc2c(C)c(O)c(-c3ccc4nc(N5CCC(NC(C)C)C5)ccc4n3)cc2o1` (centres unmarked) [Compound 312, 6-{6-[3-(isopropylamino)pyrrolidin-1-yl]-1,5-naphthyridin-2-yl}-2,4-dimethyl-1,3-benzoxazol-5-ol]: the 50% inhibitory concentration (IC50) is less than 100 nM. For `Cn1cc2cc(-c3ccc4nc(N5CCC(NC6CCC6)C5)ccc4n3)c(O)c(F)c2n1` (centres unmarked) [Compound 315, 5-{6-[3-(cyclobutylamino)pyrrolidin-1-yl]-1,5-naphthyridin-2-yl}-7-fluoro-2-methylindazol-6-ol], the IC50 is less than 100 nM.

With `Cc1c(O)c(-c2ccc3nc(N4CCC(NC(C)C)C4)ccc3n2)cc2cn(C)nc12` (centres unmarked) [Compound 318, 5-{6-[3-(isopropylamino)pyrrolidin-1-yl]-1,5-naphthyridin-2-yl}-2,7-dimethylindazol-6-ol], the IC50 is less than 100 nM.

As for `Cc1c(O)c(-c2ccc3nc(N4CC[C@H](NC(C)C)C4)ccc3n2)cc2cn(C)nc12` [Compound 320], the concentration for half-maximal inhibition (IC50) was less than 100 nM.

As for `Cc1nc2c(F)c(O)c(-c3ccc4nc(N5CCC(NC6(C)CC6)C5)ccc4n3)cc2o1` (centres unmarked) [Compound 325, 4-fluoro-2-methyl-6-(6-{3-[(1-methylcyclopropyl)amino]pyrrolidin-1-yl}-1,5-naphthyridin-2-yl)-1,3-benzoxazol-5-ol], the IC50 was less than 100 nM.

With `Cc1nc2c(F)c(O)c(-c3ccc4nc(N5CCC(NC(C)C)C5)ccc4n3)cc2o1` (centres unmarked) [Compound 328, 4-fluoro-6-{6-[3-(isopropylamino)pyrrolidin-1-yl]-1,5-naphthyridin-2-yl}-2-methyl-1,3-benzoxazol-5-ol], the half-inhibitory concentration (IC50) is less than 100 nM.

Consider `CN[C@@H]1CCN(c2ccc3nc(-c4cc(F)c5nc(C)cn5c4)ncc3n2)C1` [Compound 331, (3R)-1-(2-{8-fluoro-2-methylimidazo[1,2-a]pyridin-6-yl}pyrido[3,2-d]pyrimidin-6-yl)-N-methylpyrrolidin-3-amine], for which the 50% inhibitory concentration (IC50) fell in the range of 100 to 1000 nM. `CN[C@H]1CCN(c2ccc3nc(-c4cc(F)c5nc(C)cn5c4)ncc3n2)C1` [Compound 332, (S)-1-(2-(8-fluoro-2-methylimidazo[1,2-a]pyridin-6-yl)pyrido[3,2-d]pyrimidin-6-yl)-N-methylpyrrolidin-3-amine]: the IC50 was in the range of 100 to 1000 nM.

These data come from patent publication US20250092065A1, “2-(INDAZOL-5-YL)-6-(PIPERIDIN-4-YL)-1,7-NAPHTHYRIDINE DERIVATIVES AND RELATED COMPOUNDS AS MODULATORS FOR SPLICING NUCLEIC ACIDS AND FOR THE TREATMENT OF PROLIFERATIVE DISEASES” (REMIX THERAPEUTICS INC., priority 2022, published 2025).
